These are literature values, as cited in patent publication US4686282A, “Immunotherapeutic polypeptide agents which block immune complex binding to immunoglobulin Fc receptors” (Immunetech, Inc., priority 1983, dated 1987).

In one data set the test system is lymphocytes. Particulars: Morgan, Huguli and Weigle 1982.
The next data set concerns the target C1 (Homo sapiens, UniProt P02745+P02746+P02747). Particulars: compared with intact monomeric IgG; Prystowsky et al. 1981, Lukas et al. 1981.
For data set [1] the following is noted: humans, injection by the subcutaneous route.
Data set [2] addresses T1, IgE Fc receptor of human basophils (Homo sapiens, UniProt P12319).
T1 construct: host or cells: human basophils
T1 sequence (P12319 26-257): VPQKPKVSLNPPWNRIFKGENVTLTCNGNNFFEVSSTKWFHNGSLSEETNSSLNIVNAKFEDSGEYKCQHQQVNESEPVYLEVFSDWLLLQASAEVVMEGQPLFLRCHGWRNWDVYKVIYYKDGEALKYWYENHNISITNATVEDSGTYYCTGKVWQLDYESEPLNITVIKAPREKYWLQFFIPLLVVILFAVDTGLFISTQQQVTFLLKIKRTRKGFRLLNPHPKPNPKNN
T1 sequence (Q01362 1-244 partner): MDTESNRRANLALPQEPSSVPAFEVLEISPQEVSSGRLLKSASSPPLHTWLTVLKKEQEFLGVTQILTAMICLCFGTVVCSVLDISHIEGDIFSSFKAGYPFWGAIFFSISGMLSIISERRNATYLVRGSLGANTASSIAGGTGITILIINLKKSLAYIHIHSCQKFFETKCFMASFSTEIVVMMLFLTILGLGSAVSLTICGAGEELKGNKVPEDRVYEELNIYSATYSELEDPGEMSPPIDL
T1 sequence (P30273 19-86 partner): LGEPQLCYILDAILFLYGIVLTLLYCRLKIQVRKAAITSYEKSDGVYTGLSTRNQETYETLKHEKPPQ
The following applies: Plummer et al. 1983.

The test system of data set [3] is local cutaneous allergic reaction (Prausnitz-Kustner). Particulars: Hamburger 1975.
For data set [4], the system named is human monocyte IgG Fc receptors.
The subject of data set [5] is human and rodent mast cells. Particulars: Stanworth et al. 1979.
Data set [6] relates to granulocytes, monocytes and macrophages. The following applies: in vitro; literature.

Ends that are not written are not given here.

Sequence of C1 (P02745 23-245): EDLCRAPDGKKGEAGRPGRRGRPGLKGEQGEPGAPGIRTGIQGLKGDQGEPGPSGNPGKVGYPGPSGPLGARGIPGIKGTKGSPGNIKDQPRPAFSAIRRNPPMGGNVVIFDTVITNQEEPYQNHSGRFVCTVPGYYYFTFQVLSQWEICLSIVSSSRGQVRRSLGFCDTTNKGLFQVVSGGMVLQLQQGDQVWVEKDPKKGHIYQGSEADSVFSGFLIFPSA
Sequence of C1 (P02746 28-253): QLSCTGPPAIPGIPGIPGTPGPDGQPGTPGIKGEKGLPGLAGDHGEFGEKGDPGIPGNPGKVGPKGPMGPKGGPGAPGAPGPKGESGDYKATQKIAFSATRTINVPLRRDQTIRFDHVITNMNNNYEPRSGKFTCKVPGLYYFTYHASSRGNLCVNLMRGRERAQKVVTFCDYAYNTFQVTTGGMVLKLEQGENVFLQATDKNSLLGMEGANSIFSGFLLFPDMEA
Sequence of C1 (P02747 29-245): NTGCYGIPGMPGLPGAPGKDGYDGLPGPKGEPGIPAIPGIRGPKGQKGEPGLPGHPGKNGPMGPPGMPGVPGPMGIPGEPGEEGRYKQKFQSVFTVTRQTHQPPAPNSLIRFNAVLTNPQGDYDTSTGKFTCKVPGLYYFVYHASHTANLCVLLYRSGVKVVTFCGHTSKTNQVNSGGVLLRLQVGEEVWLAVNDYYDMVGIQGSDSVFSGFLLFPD
Sequence of C1 (P00736 18-705 partner): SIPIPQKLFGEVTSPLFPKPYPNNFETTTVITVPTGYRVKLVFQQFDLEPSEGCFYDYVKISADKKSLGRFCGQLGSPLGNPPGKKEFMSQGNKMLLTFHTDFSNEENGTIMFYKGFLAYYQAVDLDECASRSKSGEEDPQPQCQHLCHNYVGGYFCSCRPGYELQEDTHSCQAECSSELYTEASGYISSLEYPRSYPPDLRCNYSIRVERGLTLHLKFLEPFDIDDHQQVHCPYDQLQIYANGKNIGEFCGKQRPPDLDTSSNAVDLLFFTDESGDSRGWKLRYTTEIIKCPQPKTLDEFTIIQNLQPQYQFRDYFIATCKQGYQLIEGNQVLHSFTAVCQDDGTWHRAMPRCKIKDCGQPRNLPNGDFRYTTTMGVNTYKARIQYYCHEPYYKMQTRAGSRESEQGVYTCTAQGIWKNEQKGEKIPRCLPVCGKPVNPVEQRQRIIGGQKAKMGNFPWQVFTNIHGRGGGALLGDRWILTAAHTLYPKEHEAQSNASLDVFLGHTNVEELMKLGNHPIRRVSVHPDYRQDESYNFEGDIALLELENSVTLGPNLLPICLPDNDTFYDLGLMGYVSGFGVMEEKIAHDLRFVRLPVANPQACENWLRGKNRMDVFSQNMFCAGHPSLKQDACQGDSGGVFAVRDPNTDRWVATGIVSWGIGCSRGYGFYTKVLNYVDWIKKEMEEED
Sequence of C1 (P09871 16-688 partner): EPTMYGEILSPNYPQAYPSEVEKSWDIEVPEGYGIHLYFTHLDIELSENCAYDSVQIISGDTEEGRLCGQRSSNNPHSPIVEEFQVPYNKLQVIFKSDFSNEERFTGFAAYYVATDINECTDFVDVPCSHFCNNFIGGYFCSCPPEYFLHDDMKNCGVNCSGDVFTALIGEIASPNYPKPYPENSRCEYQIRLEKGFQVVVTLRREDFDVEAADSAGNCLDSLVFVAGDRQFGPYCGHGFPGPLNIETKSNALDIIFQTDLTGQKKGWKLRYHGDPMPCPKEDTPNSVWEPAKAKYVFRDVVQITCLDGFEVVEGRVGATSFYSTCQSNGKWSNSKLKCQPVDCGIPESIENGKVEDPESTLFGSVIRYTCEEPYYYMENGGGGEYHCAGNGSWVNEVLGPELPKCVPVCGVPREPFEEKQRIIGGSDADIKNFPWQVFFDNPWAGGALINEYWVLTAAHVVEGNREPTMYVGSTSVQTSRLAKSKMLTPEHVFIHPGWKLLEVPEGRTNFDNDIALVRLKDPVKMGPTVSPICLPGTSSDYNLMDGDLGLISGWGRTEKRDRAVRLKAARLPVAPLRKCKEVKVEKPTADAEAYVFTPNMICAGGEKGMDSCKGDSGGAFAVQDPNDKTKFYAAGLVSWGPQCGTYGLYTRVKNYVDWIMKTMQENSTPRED

For TISKAKGQPREPQVYTLPSREEM, the “nonspecific activation of lymphocytes” value in the data set on lymphocytes is on record as “ability to nonspecifically activate lymphocytes”.
As to Ac-Phe-Asn-Trp-Tyr-Val (Ac-FNWYV), in the data set with C1, the “inhibitors of C1-mediated hemolysis” value is recorded as “less active”.
Regarding “Asp-Ser-Asp-Pro-Arg (DSDPR; printed: Asp-Ser-Asp-Pro-Arg)”, in data set [1], the “inhibit systemic allergic disease” value is reported as “inhibit systemic allergic disease”. The “block human IgE binding to basophil IgE Fc receptors” value in data set [2] was “up to 70%”. Also, in data set [3], the “inhibit a local cutaneous allergic reaction (Prausnitz-Kustner)” value was “approximately 90%”.
For QYDSTYR, in data set [4] (Ratcliffe and Stanworth 1982), the “block IgG binding to human monocyte IgG Fc receptors” value is “slightly block”.
Turning to GVQVHNAKTK, in the data set with C1, the “inhibitors of C1-mediated hemolysis” value is on record as “approximately as active as inhibitors as intact monomeric IgG”.
For the substance PRKTKGSGFFVF, the “degranulation of human and rodent mast cells” value in data set [5] is listed as “able to cause degranulation”.
For the substance “Thr-Lys-Pro-Arg (TKPR; printed: Thr-Lys-Pro-Arg) [Tuftsin]”, in data set [4] (Ratcliffe and Stanworth 1982 and ourselves), the “inhibits human IgG binding to human monocyte IgG Fc receptors” value is listed as “competitively inhibits”. Moreover, in the data set with C1, the “inhibitors of C1-mediated hemolysis” value is on record as “less active”. In addition, the phagocytosis stimulating ability result in data set [6] is reported as “active at nanomolar concentrations”.
As to FNWYVDGVQVHNAKTK, the “inhibitors of C1-mediated hemolysis” value with C1 is “less active”.
Take “Val-Gln-Val-His-Asn-Ala-Lys-Thr-Lys-Pro-Arg-OH (VQVHNAKTKPR-OH)”: the “inhibitors of C1-mediated hemolysis” value with C1 is listed as “approximately as active as inhibitors as intact monomeric IgG”.
